Calls of active or inactive are those of the source. The rule behind the calls is not given here.
Legend:
[1] = target: T1, Neurotensin receptor type 2 (Rattus norvegicus, UniProt Q63384); test: Agonist activity at rat NTS2 overexpressed in CHO-k1 cells assessed as calcium mobilization by FLIPR assay; format: functional, cell-based
T1 sequence (Q63384 whole entry): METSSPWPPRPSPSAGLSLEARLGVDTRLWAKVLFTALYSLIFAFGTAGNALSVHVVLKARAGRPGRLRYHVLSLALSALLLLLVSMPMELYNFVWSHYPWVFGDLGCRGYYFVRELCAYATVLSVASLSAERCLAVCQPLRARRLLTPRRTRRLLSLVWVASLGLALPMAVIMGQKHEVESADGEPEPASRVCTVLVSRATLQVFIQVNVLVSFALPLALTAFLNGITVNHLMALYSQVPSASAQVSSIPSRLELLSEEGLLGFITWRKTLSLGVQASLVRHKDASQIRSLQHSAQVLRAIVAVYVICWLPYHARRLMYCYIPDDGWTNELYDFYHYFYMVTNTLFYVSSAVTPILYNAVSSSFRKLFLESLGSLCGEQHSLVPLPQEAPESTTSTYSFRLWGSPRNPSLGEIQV

[2] = target: Neurotensin receptor type 1 (Rattus norvegicus, UniProt P20789); test: Displacement of [I125]neurotensin from rat NTS1 overexpressed in CHO-k1 cells by competitive binding Assay; format: cell-based
Neurotensin receptor type 1, sequence (P20789 whole entry): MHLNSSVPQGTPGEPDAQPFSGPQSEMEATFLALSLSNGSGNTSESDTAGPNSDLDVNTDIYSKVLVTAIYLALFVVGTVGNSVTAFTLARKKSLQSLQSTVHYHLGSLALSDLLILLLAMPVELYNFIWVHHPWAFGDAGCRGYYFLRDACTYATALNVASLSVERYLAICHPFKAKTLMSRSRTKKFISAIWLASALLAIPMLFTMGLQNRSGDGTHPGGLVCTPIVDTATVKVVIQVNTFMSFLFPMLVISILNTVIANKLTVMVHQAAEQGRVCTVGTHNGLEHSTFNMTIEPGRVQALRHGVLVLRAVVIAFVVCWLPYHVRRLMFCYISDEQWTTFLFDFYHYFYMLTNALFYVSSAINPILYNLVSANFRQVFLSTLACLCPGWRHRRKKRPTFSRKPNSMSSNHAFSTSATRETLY

[3] = target: T1, Neurotensin receptor type 2; test: Displacement of [I125]neurotensin from rat NTS2 overexpressed in CHO-k1 cells by competitive binding Assay; format: cell-based
[4] = target: Neurotensin receptor type 1 (Rattus norvegicus) (UniProt P20789); test: Antagonist activity at rat NTS1 overexpressed in CHO-k1 cells assessed as blockade of neurotensin-mediated calcium mobilization after 15 mins by FLIPR assay; format: functional, cell-based
Neurotensin receptor type 1 (Rattus norvegicus), sequence (P20789 whole entry): as above

[5] = target: T2, Neurotensin receptor type 2 (Rattus norvegicus) (UniProt Q63384); test: Agonist activity at rat NTS2 overexpressed in CHO-k1 cells assessed as calcium mobilization by FLIPR assay relative to SR142948a; format: functional, cell-based
T2 sequence (whole entry): T1 sequence (Q63384 whole entry)

| Structure (SMILES) | EC50 ([1]; cho-k1) | Ki [2] [nM] | Ki [3] [nM] | EC50 ([1]; read-out: EC50) [nM] | Ke [4] | Emax [5] [%] |
| --- | --- | --- | --- | --- | --- | --- |
| COc1cccc(OC)c1-c1cc(NC(=O)C2(C(=O)O)CCCCC2)nn1-c1ccc(F)cc1 | – | > 25000 | 271 | 55 | inactive | 10 |
| COc1cccc(OC)c1-c1cc(NC(=O)C2(C(=O)O)CCCCC2)nn1-c1cccc2ccccc12 | Not Active | 10200 | 128 | – | – | – |
| COc1ccccc1-c1cc(NC(=O)C2(C(=O)O)CCCCC2)nn1-c1ccc(F)cc1 | – | > 25000 | 6340 | 951 | inactive | 13 |
| COc1ccccc1-c1cc(C(=O)NC2(C(=O)O)CCCCC2)nn1-c1ccc(F)cc1 | – | > 25000 | – | – | – | – |

Continued, values first:

| EC50 ([1]; cho-k1) | Ki [2] [nM] | Ki [3] [nM] | EC50 ([1]; read-out: EC50) [nM] | Ke [4] | Emax [5] [%] | Structure (SMILES) |
| --- | --- | --- | --- | --- | --- | --- |
| Not Active | > 10000 | > 10000 | – | – | – | COc1cccc(OC)c1-c1cc(CN[C@H](C(=O)O)C2CCCCC2)nn1-c1ccnc2cc(Cl)ccc12 |
| – | 1210 | – | – | – | – | COc1cccc(OC)c1-c1cc(C(=O)NC2(C(=O)O)CCCCC2)nn1-c1cccc2ccccc12 |
| Not Active | 7180 | 140 | – | – | – | COc1cccc(OC)c1-c1cc(NC(=O)C2(C(=O)O)CCCCC2)nn1-c1ccnc2cc(Cl)ccc12 |
| – | 177 | – | – | – | – | COc1cccc(OC)c1-c1cc(C(=O)NC2(C(=O)O)CCCCC2)nn1-c1ccnc2cc(Cl)ccc12 |
